In patent publication US20220242850A1, “PHTHALAZIN-1-ONE DERIVATIVES USEFUL AS GRK2 INHIBITORS” (Janssen Pharmaceutica NV, priority 2019, published 2022):
Where “and” joins values, the source holds several entries; their conditions need not be identical. Identical values can stand only once.

Target: T1, GRK2 (Homo sapiens, UniProt P25098)
T1 sequence (P25098 1-689): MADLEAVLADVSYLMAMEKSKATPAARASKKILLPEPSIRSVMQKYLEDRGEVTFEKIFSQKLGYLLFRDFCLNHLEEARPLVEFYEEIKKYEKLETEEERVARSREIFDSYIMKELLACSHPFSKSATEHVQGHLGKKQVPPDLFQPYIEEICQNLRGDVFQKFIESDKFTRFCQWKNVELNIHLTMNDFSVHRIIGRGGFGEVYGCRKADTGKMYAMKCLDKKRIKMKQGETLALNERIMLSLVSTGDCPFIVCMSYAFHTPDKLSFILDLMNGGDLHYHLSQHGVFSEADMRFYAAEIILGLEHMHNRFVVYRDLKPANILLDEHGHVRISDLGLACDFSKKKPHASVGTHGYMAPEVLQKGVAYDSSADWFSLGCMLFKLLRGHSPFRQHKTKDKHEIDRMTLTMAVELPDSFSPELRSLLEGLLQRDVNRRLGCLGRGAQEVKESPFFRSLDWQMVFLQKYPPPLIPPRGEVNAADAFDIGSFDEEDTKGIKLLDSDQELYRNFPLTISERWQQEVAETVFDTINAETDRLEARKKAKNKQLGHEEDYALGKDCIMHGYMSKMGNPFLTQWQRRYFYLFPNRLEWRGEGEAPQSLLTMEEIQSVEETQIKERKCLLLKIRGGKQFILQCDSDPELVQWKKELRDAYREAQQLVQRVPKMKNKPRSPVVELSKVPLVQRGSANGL
Assay: GRK2 Transcreener Assay
Assay type: biochemical
Conditions: 10 nM GRK2, 10 uM ATP, 150 uM peptide substrate
Experimental: Positive and negative control wells received an equal volume of DMSO. The final DMSO concentration in the assay is 1%.
The plate was placed in centrifuge equipped with a spin-bucket rotor and spun for 1 min at 1000 rpm.
GRK2 enzymatic reactions were initiated with the addition of 2 μL/well of 50 nM GRK2 in assay buffer. Plates were centrifuged for 1 min at 1000 rpm. For negative control wells, the order of reagent addition was reversed: 10 μL/well ADP detection mix (see below) was added first, followed by the addition of 2 μL/well of the GRK2 solution. Reaction mixtures were incubated at ambient temperature for 2 hours.
Following incubation, the reactions were quenched with 10 μL/well of the Transcreener ADP detection mix. […] The plates were then centrifuged for 1 min at 1000 rpm.
Fluorescence polarization values of the reaction mixtures were read on a Safire II plate reader after a 60 min incubation at ambient temperature. Excitation wavelength=590 nm: emission wavelength=650 nm.
The fluorescence polarization data were converted to % activity as follows:
% activity=(sample−NC)/(PC−NC)*100
where NC is the mean of negative control (ADP detection mix added prior to GRK2 addition), and PC is the mean of positive control (GRK2 reaction without inhibitor). IC50 values are determined from a 4-parameter fit, using the following equation:
(§1) Y=Bottom+(Top−Bottom)/(1+10^(Log IC50-X)*Hill slope)),
(§2) where X=log10 of the compound concentration.

Compound | IC50
[2H]C([2H])(Oc1cccc([C@@H](C)n2ncc3ccc(-c4cn[nH]c4)cc3c2=O)c1)C(=O)O (single isomer, unassigned) [Compound 20] | 190 nM
[2H]C([2H])(Oc1cccc([C@@H](C)n2ncc3ccc(-c4cn[nH]c4)cc3c2=O)c1)C(=O)OC (single isomer, unassigned) [Compound 21] | 23 nM
C[C@H](c1cccc(OCC(=O)O)c1)n1ncc2ccc(-c3ccnc(N)n3)cc2c1=O (single isomer, unassigned) [Compound 22] | 11000 nM
COC(=O)COc1cccc([C@@H](C)n2ncc3ccc(-c4ccnc(N)n4)cc3c2=O)c1 (single isomer, unassigned) [Compound 27] | 1900 nM
Cc1n[nH]cc1-c1ccc2cnn([C@H](C)c3cccc(OCC(=O)O)c3)c(=O)c2c1 (single isomer, unassigned) [Compound 28] | 410 nM
C[C@H](c1cccc(OCC(=O)O)c1)n1ncc2ccc(-c3cn[nH]c3)cc2c1=O (single isomer, unassigned) [Compound 29] | 47 nM
C[C@H](c1cccc(OCCOC2CC2)c1)n1ncc2ccc(-c3cn[nH]c3)cc2c1=O (single isomer, unassigned) [Compound 30] | 660 nM
Cc1n[nH]cc1-c1ccc2cnn([C@H](C)c3cccc(OCCOC4CC4)c3)c(=O)c2c1 (single isomer, unassigned) [Compound 31] | 6200 nM
COc1cccc([C@@H](C)n2ncc3ccc(-c4ccnc(N)n4)cc3c2=O)c1 (single isomer, unassigned) [Compound 33] | 7700 nM
COc1cccc(Cn2ncc3ccc(-c4ccnc(N)n4)cc3c2=O)c1 [Compound 34, 7-(2-Aminopyrimidin-4-yl)-2-[(3-methoxyphenyl)methyl]phthalazin-1-one] | 890 nM

The remaining lines, values ahead:

IC50 | Compound
1300 nM | O=C(O)Cc1cccc(Cn2ncc3ccc(-c4cn[nH]c4)cc3c2=O)c1 [Compound 23, 2-[3-[[1-oxo-7-(1H-pyrazol-4-yl)phthalazin-2-yl]methyl]phenyl]acetic acid]
7.4 nM | COC(=O)CCNC(=O)c1cccc(Cn2ncc3ccc(-c4cn[nH]c4)cc3c2=O)c1 [Compound 24, Methyl 3-[[3-[[1-oxo-7-(1H-pyrazol-4-yl)phthalazin-2-yl]methyl]benzoyl]amino]propanoate]
220 nM | COC(=O)Cc1cccc(Cn2ncc3ccc(-c4cn[nH]c4)cc3c2=O)c1 [Compound 25, Methyl 2-[3-[[1-oxo-7-(1H-pyrazol-4-yl)phthalazin-2-yl]methyl]phenyl]acetate]
520 nM | O=C(O)CCNC(=O)c1cccc(Cn2ncc3ccc(-c4cn[nH]c4)cc3c2=O)c1 [Compound 26, 3-[[3-[[1-Oxo-7-(1H-pyrazol-4-yl)phthalazin-2-yl]methyl]benzoyl]amino]propanoic acid]
1600 nM | CCC(c1cccc(OC)c1)n1ncc2ccc(-c3cn[nH]c3)cc2c1=O (stereo not drawn) [Compound 32, 2-[1-(3-Methoxyphenyl)propyl]-7-(1H-pyrazol-4-yl)phthalazin-1-one]
140 nM and 120 nM | COc1cccc(Cn2ncc3ccc(-c4c[nH]nc4C)cc3c2=O)c1 [Compound 35, 2-[(3-Methoxyphenyl)methyl]-7-(3-methyl-1H-pyrazol-4-yl)phthalazin-1-one]
900 nM | COc1cccc(Cn2ncc3ccc(-c4ccoc4)cc3c2=O)c1 [Compound 36, 7-(3-Furyl)-2-[(3-methoxyphenyl)methyl]phthalazin-1-one]
< 5 nM | COC(=O)COc1cccc(Cn2ncc3ccc(-c4cn[nH]c4)cc3c2=O)c1 [Compound 37, Methyl 2-[3-[[1-oxo-7-(1H-pyrazol-4-yl)phthalazin-2-yl]methyl]phenoxy]acetate]
8 nM | O=C(O)COc1cccc(Cn2ncc3ccc(-c4cn[nH]c4)cc3c2=O)c1 [Compound 38, 2-[3-[[1-Oxo-7-(1H-pyrazol-4-yl)phthalazin-2-yl]methyl]phenoxy]acetic acid]
> 50000 nM | O=c1c2cc(-c3cn[nH]c3)ccc2cnn1Cc1cccc(OC(F)(F)F)c1 [Compound 39, 7-(1H-Pyrazol-4-yl)-2-[[3-(trifluoromethoxy)phenyl]methyl]phthalazin-1-one]
300 nM | O=c1c2cc(-c3cn[nH]c3)ccc2cnn1Cc1ccccc1 [Compound 40, 2-Benzyl-7-(1H-pyrazol-4-yl)phthalazin-1-one]

Target: T1, GRK2
Assay: hGRK2 LANCE Ultra In Vitro Assay
Assay type: biochemical
Conditions: hGRK2 LANCE Ultra Assay IC50, 10 nM GRK2; ATP 30 or 600 μM (not stated which)
Experimental: G-protein coupled receptor kinases (GR Kinases) desensitize activated G-protein coupled receptors (GPCRs), by phosphorylation of cytoplasmic loops or carboxyl-terminal tails of GPCRs. GRK2 is one of the 6 different GR kinases and is implicated in heart failure and diabetes.
This assay is sensitive and requires as low as 10 nM enzyme, in a total volume of 10 μL. In addition, the ATP concentration can be varied over a broad range, without interfering with the assay or changing the assay condition. […] Testing inhibitors routinely at both high and low ATP concentrations also enables identification of potential non-ATP competitive inhibitors.
Paroxetine was used as the reference compound in this assay.
Test compounds were dissolved in DMSO at 1 mM and were 3-fold serial diluted. The compound DMSO solutions were then added (100 nL) into a plate well using an acoustic dispenser. To each well was then added 20 nM GRK2 (5 μL) in assay buffer (20 mM HEPES, pH 7.5, 10 mM MgCl2, 0.001% Tween-20®). The plate was sealed and centrifuged at 1000 rpm for 1 min. The plate and wells containing a mixture of GRK2 and test compound were incubated at ambient temperature for 30 min (prior to initializing the enzymatic reaction).
Enzyme reactions were initiated by the addition of 4.9 μL Substrates/Eu-Ab mix to each well. […] Final concentrations of reagents in the assays were as follows: 20 mM HEPES, pH 7.5; 10 mM MgCl2; 0.001% Tween-2® (w/v), 30 or 600 μM ATP; 200 nM ULight-peptide; 4 nM Eu-Ab; 10 nM GRK2; and 1% DMSO.
The plates were sealed and centrifuged at 1000 rpm for 1 min. For reactions at low ATP concentration (30 μM), reaction mixtures were incubated at ambient temperature for 120 min. For reactions at high ATP concentration (600 μM), reaction mixtures were incubated at ambient temperature for 60 min.
The enzyme reactions were quenched by addition of 10 μL of 12 mM EDTA in 1× LANCE detection solution to each well. The plates were then incubated at ambient temperature for 30 min.
The raw HTRF data were converted to % active as follows:
% active=(sample−NC)/(PC−NC)*100
where NC is the mean of negative control (reactions without GRK2), and PC is the mean of positive control (reactions with GRK2 but without inhibitor). IC50 values were determined from a 4-parameter fit, using the following equation:
as §1, §2

Compound | IC50 [nM]
COc1cccc(Cl)c1CNC(=O)c1cccc(Cn2ncc3ccc(-c4cn[nH]c4)cc3c2=O)c1 [Compound 1, N-[(2-Chloro-6-methoxy-phenyl)methyl]-3-[[1-oxo-7-(1H-pyrazol-4-yl)phthalazin-2-yl]methyl]benzamide] | < 5
Cc1cccc(Cl)c1CNC(=O)c1cccc(Cn2ncc3ccc(-c4cn[nH]c4)cc3c2=O)c1 [Compound 2, N-[(2-Chloro-6-methyl-phenyl)methyl]-3-[[1-oxo-7-(1H-pyrazol4-yl)phthaiazin-2-yl]methyl]benzamide] | < 5
O=C(NC1CC1)c1cc(F)cc(Cn2ncc3ccc(-c4cn[nH]c4)cc3c2=O)c1 [Compound 5] | 6.3

The remaining lines, values ahead:

IC50 [nM] | Compound
89 | COc1cccc(C(C)n2ncc3ccc(-c4cn[nH]c4)cc3c2=O)c1 (single isomer, unassigned) [Compound 16, 2-[1-(3-Methoxyphenyl)ethyl]-7-(1H-pyrazol4-yl)phthalazin-1-one]
1700 | COc1cccc(C(C)n2ncc3ccc(-c4cn[nH]c4)cc3c2=O)c1 (single isomer, unassigned) [Compound 17, 2-[1-(3-Methoxyphenyl)ethyl]-7-(1H-pyrazol-4-yl)phthalazin-1-one]
5 | O=C(NC1CC2CCC1C2)c1cccc(Cn2ncc3ccc(-c4cn[nH]c4)cc3c2=O)c1 (stereo not drawn) [Compound 3, N-Norbornan-2-yl-3-[[1-oxo-7-(1H-pyrazol-4-yl)phthalazin-2-yl]methyl]benzamide]
5.5 | C#CCCNC(=O)c1cccc(Cn2ncc3ccc(-c4cn[nH]c4)cc3c2=O)c1 [Compound 4, N-But-3-ynyl-3-[[1-oxo-7-(1H-pyrazol-4-yl)phthalazin-2-yl]methyl]benzamide]
8 | O=C(COc1cccc(Cn2ncc3ccc(-c4cn[nH]c4)cc3c2=O)c1)N1CCOCC1 [Compound 6, 2-[[3-(2-Morpholino-2-oxo-ethoxy)phenyl]methyl]-7-(1H-pyrazol-4-yl)phthalazin-1-one]
10 | O=C(NC1CC1)c1cccc(Cn2ncc3ccc(-c4cn[nH]c4)cc3c2=O)c1 [Compound 7, N-Cyclopropyl-3-[[1-oxo-7-(1H-pyrazol-4-yl)phthalazin-2-yl]methyl]benzamide]
